Here are results for 19 compounds from patent US9346795B2, “Substituted sulfonamides useful as antiapoptotic Bcl inhibitors” (Bristol-Myers Squibb Company, priority 2011, dated 2016).

The target in one test is Bcl-2 (Homo sapiens (Human), UniProt P10415). The experiment in a line: Bcl-2/Bim Fluorescence Polarization Assay (FPA). The class given is binding. On the procedure:
Bcl-2/Bim Fluorescence Polarization Assay (FPA)
The assays were performed in black flat-bottom 384-well plates. […] The reaction was incubated at room temperature for 60 minutes and fluorescence polarization of the reaction was detected on the LJL Plate Reader. Inhibition data were calculated from mP values generated by the no protein control reactions for 100% inhibition and vehicle-only reactions for 0% inhibition. The final concentrations of reagents in the assay were 4.9 nM BCL-2, 5 nM fluoresceinated 18-mer BIM peptide and 1% DMSO. […] Compounds were dissolved at 10 mM in dimethylsulfoxide (DMSO) and evaluated at eleven concentrations. IC50 values were derived by non-linear regression analysis.
In general terms: Polarisation of emitted light reports the rotation of a fluorescent probe.

Another test concerns the target Bcl-xL (Homo sapiens (Human), UniProt Q07817). The experiment in a line: Bcl-xL/Bim Fluorescence Resonance Energy Transfer Assay (FRET). The format is binding. On the procedure: Bcl-xL/Bim Fluorescence Resonance Energy Transfer Assay (FRET) The assays were performed in black flat-bottom 384-well plates. The final assay volume was 55 μl prepared from additions of Biotin-Bcl-xL (Bcl-xL: GENBANK® Accession No. […] The reaction was incubated at room temperature for 60 minutes. After 60 minutes, 5 μL of Streptavidin-Terbium FRET detection reagent (Perkin Elmer) was added to the reaction mixture and incubated at room temperature in the dark for 30 mins. […] Compounds were dissolved at 10 mM in dimethylsulfoxide (DMSO) and evaluated at eleven concentrations. IC50 values were derived by non-linear regression analysis.

Chain of Bcl-xL (Q07817 whole entry): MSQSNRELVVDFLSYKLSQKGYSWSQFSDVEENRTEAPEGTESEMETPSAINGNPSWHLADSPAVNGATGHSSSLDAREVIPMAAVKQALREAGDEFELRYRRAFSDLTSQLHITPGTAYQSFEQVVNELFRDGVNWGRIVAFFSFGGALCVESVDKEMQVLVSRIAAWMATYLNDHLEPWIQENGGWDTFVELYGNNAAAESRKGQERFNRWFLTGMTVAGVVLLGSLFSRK
Chain of Bcl-2 (P10415 whole entry): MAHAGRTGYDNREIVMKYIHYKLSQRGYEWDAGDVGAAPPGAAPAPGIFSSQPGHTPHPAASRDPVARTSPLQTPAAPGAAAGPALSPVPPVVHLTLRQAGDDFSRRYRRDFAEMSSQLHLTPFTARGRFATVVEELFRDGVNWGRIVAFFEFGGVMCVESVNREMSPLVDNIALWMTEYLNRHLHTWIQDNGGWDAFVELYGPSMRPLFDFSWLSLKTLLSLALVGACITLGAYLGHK

A word on the IC50: it is the point on the concentration scale where inhibition reaches its midpoint. The compound `CCCCc1c(-c2ccc(C(=O)NS(=O)(=O)c3ccc4ccccc4c3)cc2C(=O)N2CCc3ccccc3C2)c(CO)nn1-c1ccc(OCC(O)CO)cc1` (racemic) [Example 258, (±)-4-(5-Butyl-1-(4-(2,3-dihydroxypropoxy)phenyl)-3-(hydroxymethyl)-1H-pyrazol-4-yl)-N-(naphthalen-2-ylsulfonyl)-3-(1,2,3,4-tetrahydroisoquinoline-2-carbonyl)benzamide] came in with an IC50 against Bcl-2 of 8.13 nM. That is a single-digit nanomolar value.
As for `CCCCN(CCCC)C(=O)c1nn(-c2ccc(C(=O)NS(=O)(=O)c3ccc4ccccc4c3)cc2C(=O)N2CCc3ccccc3C2)c(C)c1Cl` [Example 1, N,N-Dibutyl-4-chloro-5-methyl-1-(4-(naphthalen-2-ylsulfonylcarbamoyl)-2-(1,2,3,4-tetrahydroisoquinoline-2-carbonyl)phenyl)-1H-pyrazole-3-carboxamide], the IC50 against Bcl-xL was determined as 20 nM; on Bcl-2 it was 30 nM.
The like results for `CCCCN(CCCC)C(=O)c1nn(-c2ccc(C(=O)NS(=O)(=O)c3ccc4c(Cl)cccc4c3)cc2C(=O)N2CCc3ccccc3C2)c(C)c1Cl` [Example 2, N,N-dibutyl-4-chloro-1-(4-(5-chloronaphthalen-2-ylsulfonylcarbamoyl)-2-(1,2,3,4-tetrahydroisoquinoline-2-carbonyl)phenyl)-5-methyl-1H-pyrazole-3-carboxamide] were, in that order, 30 nM and 200 nM.
Consider `CCCCN(CCCC)C(=O)c1nn(-c2ccc(C(=O)NS(=O)(=O)c3ccc4cccc(Cl)c4c3)cc2C(=O)N2CCc3ccccc3C2)c(C)c1Cl` [Example 5, N,N-dibutyl-4-chloro-1-(4-(8-chloronaphthalen-2-ylsulfonylcarbamoyl)-2-(1,2,3,4-tetrahydroisoquinoline-2-carbonyl)phenyl)-5-methyl-1H-pyrazole-3-carboxamide], for which the 50% inhibitory concentration (IC50) was found to be 70 nM against Bcl-xL and 30 nM at Bcl-2.
Consider `CCCCN(CCCC)C(=O)c1nn(-c2ccc(C(=O)NS(=O)(=O)c3ccc4cccc(C#N)c4c3)cc2C(=O)N2CCc3ccccc3C2)c(C)c1Cl` [Example 8, N,N-dibutyl-4-chloro-1-(4-(8-cyanonaphthalen-2-ylsulfonylcarbamoyl)-2-(1,2,3,4-tetrahydroisoquinoline-2-carbonyl)phenyl)-5-methyl-1H-pyrazole-3-carboxamide], for which the IC50 against Bcl-xL was 20 nM; against Bcl-2, 920 nM.
In the case of `CCCCN(CCCC)C(=O)c1nn(-c2ccc(C(=O)NS(=O)(=O)c3ccc4ccc(Cl)cc4c3)cc2C(=O)N2CCc3ccccc3C2)c(C)c1Cl` [Example 10, N,N-dibutyl-4-chloro-1-(4-(7-chloronaphthalen-2-ylsulfonylcarbamoyl)-2-(1,2,3,4-tetrahydroisoquinoline-2-carbonyl)phenyl)-5-methyl-1H-pyrazole-3-carboxamide], the concentration for half-maximal inhibition (IC50) on Bcl-xL and against Bcl-2 was 90 nM throughout.
On Bcl-xL, `CCCCN(CCCC)C(=O)c1nn(-c2ccc(C(=O)NS(=O)(=O)c3ccc4ccc(I)cc4c3)cc2C(=O)N2CCc3ccccc3C2)c(C)c1Cl` [Example 11, N,N-dibutyl-4-chloro-1-(4-(7-iodonaphthalen-2-ylsulfonylcarbamoyl)-2-(1,2,3,4-tetrahydroisoquinoline-2-carbonyl)phenyl)-5-methyl-1H-pyrazole-3-carboxamide] had an IC50 of 50 nM. This counts as double-digit nanomolar.
As for `CCCCN(CCCC)C(=O)c1nn(-c2ccc(C(=O)NS(=O)(=O)c3ccc4ccc(OCc5ccccc5)cc4c3)cc2C(=O)N2CCc3ccccc3C2)c(C)c1Cl` [Example 18, 1-(4-(7-(benzyloxy)naphthalen-2-ylsulfonylcarbamoyl)-2-(1,2,3,4-tetrahydroisoquinoline-2-carbonyl)phenyl)-N,N-dibutyl-4-chloro-5-methyl-1H-pyrazole-3-carboxamide], the IC50 against Bcl-xL was 30 nM; on Bcl-2, 10 nM.
On to `CCCCN(CCCC)C(=O)c1nn(-c2ccc(C(=O)NS(=O)(=O)c3ccc4ccc(OC(C)C)cc4c3)cc2C(=O)N2CCc3ccccc3C2)c(C)c1Cl` [Example 24, N,N-dibutyl-4-chloro-1-(4-(7-isopropoxynaphthalen-2-ylsulfonylcarbamoyl)-2-(1,2,3,4-tetrahydroisoquinoline-2-carbonyl)phenyl)-5-methyl-1H-pyrazole-3-carboxamide], for which the concentration for half-maximal inhibition (IC50) is 20 nM against Bcl-xL and 50 nM against Bcl-2.
Consider `CCCCN(CCCC)C(=O)c1nn(-c2ccc(C(=O)NS(=O)(=O)c3ccc4cccc(OCCN5CCOCC5)c4c3)cc2C(=O)N2CCc3ccccc3C2)c(C)c1Cl` [Example 27, N,N-dibutyl-4-chloro-5-methyl-1-(4-(8-(2-morpholinoethoxy)naphthalen-2-ylsulfonylcarbamoyl)-2-(1,2,3,4-tetrahydroisoquinoline-2-carbonyl)phenyl)-1H-pyrazole-3-carboxamide], for which the figures for the IC50 at Bcl-xL and at Bcl-2 were 40 nM and 110 nM, respectively.
The like results for `CCCCN(CCCC)C(=O)c1nn(-c2ccc(C(=O)NS(=O)(=O)c3ccc4c(N(C)C)ccc(Br)c4c3)cc2C(=O)N2CCc3ccccc3C2)c(C)c1Cl` [Example 31, 1-(4-(8-bromo-5-(dimethylamino)naphthalen-2-ylsulfonylcarbamoyl)-2-(1,2,3,4-tetrahydroisoquinoline-2-carbonyl)phenyl)-N,N-dibutyl-4-chloro-5-methyl-1H-pyrazole-3-carboxamide] were, in that order, 70 nM and 30 nM.
With `CCCCN(CCCC)C(=O)c1nn(-c2ccc(C(=O)NS(=O)(=O)c3ccc4cccc(OCCCN5CCOCC5)c4c3)cc2C(=O)N2CCc3ccccc3C2)c(C)c1Cl` [Example 32, N,N-dibutyl-4-chloro-5-methyl-1-(4-(8-(3-morpholinopropoxy)naphthalen-2-ylsulfonylcarbamoyl)-2-(1,2,3,4-tetrahydroisoquinoline-2-carbonyl)phenyl)-1H-pyrazole-3-carboxamide], the half-inhibitory concentration (IC50) was 50 nM on Bcl-xL and 290 nM at Bcl-2.
On the same counts, the results for `CCCCN(CCCC)C(=O)c1nn(-c2ccc(C(=O)NS(=O)(=O)c3ccc4ccc(OCCCN5CCOCC5)cc4c3)cc2C(=O)N2CCc3ccccc3C2)c(C)c1Cl` [Example 34, N,N-dibutyl-4-chloro-5-methyl-1-(4-(7-(3-morpholinopropoxy)naphthalen-2-ylsulfonylcarbamoyl)-2-(1,2,3,4-tetrahydroisoquinoline-2-carbonyl)phenyl)-1H-pyrazole-3-carboxamide] are 40 nM and 290 nM.
As to `CCCCN(CCCC)C(=O)c1nn(-c2ccc(C(=O)NS(=O)(=O)c3ccc4ccc(OCCCN5CCN(C)CC5)cc4c3)cc2C(=O)N2CCc3ccccc3C2)c(C)c1Cl` [Example 35, N,N-dibutyl-4-chloro-5-methyl-1-(4-(7-(3-(4-methylpiperazin-1-yl)propoxy)naphthalen-2-ylsulfonylcarbamoyl)-2-(1,2,3,4-tetrahydroisoquinoline-2-carbonyl)phenyl)-1H-pyrazole-3-carboxamide], the IC50 against Bcl-xL was determined as 40 nM; at Bcl-2, 510 nM.
As to `CCCCN(CCCC)C(=O)c1nn(-c2ccc(C(=O)NS(=O)(=O)c3ccc4ccc(OC(C)CN(C)C)cc4c3)cc2C(=O)N2CCc3ccccc3C2)c(C)c1Cl` (stereo not shown) [Example 37, N,N-dibutyl-4-chloro-1-(4-(7-(1-(dimethylamino)propan-2-yloxy)naphthalen-2-ylsulfonylcarbamoyl)-2-(1,2,3,4-tetrahydroisoquinoline-2-carbonyl)phenyl)-5-methyl-1H-pyrazole-3-carboxamide], the IC50 against Bcl-xL worked out at 10 nM; at Bcl-2 it was 490 nM.
On to `CCCCN(CCCC)C(=O)c1nn(-c2ccc(C(=O)NS(=O)(=O)c3ccc4ccc(OCCCN(C)C)cc4c3)cc2C(=O)N2CCc3ccccc3C2)c(C)c1Cl` [Example 39, N,N-dibutyl-4-chloro-1-(4-(7-(3-(dimethylamino)propoxy)-naphthalen-2-ylsulfonylcarbamoyl)-2-(1,2,3,4-tetrahydroisoquinoline-2-carbonyl)phenyl)-5-methyl-1H-pyrazole-3-carboxamide], for which the values for the IC50 against Bcl-xL and at Bcl-2 were 20 nM and 1460 nM, respectively.
With `CCCCN(CCCC)C(=O)c1nn(-c2ccc(C(=O)NS(=O)(=O)c3ccc4ccc(OCCCN5CCCC5)cc4c3)cc2C(=O)N2CCc3ccccc3C2)c(C)c1Cl` [Example 40, N,N-dibutyl-4-chloro-5-methyl-1-(4-(7-(3-(pyrrolidin-1-yl)propoxy)naphthalen-2-ylsulfonylcarbamoyl)-2-(1,2,3,4-tetrahydroisoquinoline-2-carbonyl)phenyl)-1H-pyrazole-3-carboxamide], the IC50 against Bcl-xL was determined as 30 nM; against Bcl-2, 3780 nM.
`CCCCN(CCCC)C(=O)c1nn(-c2ccc(C(=O)NS(=O)(=O)c3ccc4ccccc4c3)cc2C(=O)N2Cc3ccccc3C[C@H]2CO)c(C)c1Cl` [Example 91, N,N-Dibutyl-4-chloro-1-(2-((S)-3-(hydroxymethyl)-1,2,3,4-tetrahydroisoquinoline-2-carbonyl)-4-(naphthalen-2-ylsulfonylcarbamoyl)phenyl)-5-methyl-1H-pyrazole-3-carboxamide]: the IC50 against Bcl-2 turned out to be 50 nM.
On the same count and under the same terms, under `CCCCN(CCCC)C(=O)c1nn(-c2ccc(C(=O)NS(=O)(=O)c3ccc4ccccc4c3)cc2C(=O)N2Cc3ccccc3C[C@H]2CNC2CCN(C)CC2)c(C)c1Cl` [Example 106, N,N-Dibutyl-4-chloro-5-methyl-1-(2-((S)-3-((1-methylpiperidin-4-ylamino)methyl)-1,2,3,4-tetrahydroisoquinoline-2-carbonyl)-4-(naphthalen-2-ylsulfonylcarbamoyl)phenyl)-1H-pyrazole-3-carboxamide] stands 20 nM.
